Results published in patent publication US20250197914A1, “MICROBIAL MEDIUM COMPOSITION FOR PRODUCING RETINOL, COMPRISING ANTI-OXIDANT, AND USE THEREOF” (CJ CHEILJEDANG CORPORATION, priority 2022, published 2025).

Each molecule was assayed on retinol-producing strains (Yarrowia lipolytica) (assay: Flask test of retinol production of retinol-producing strains with antioxidants in the medium). Conditions: antioxidant added to YLMM2 medium at 0.01% to 0.05%; 30° C., 200 rpm; 48 hour culture; HPLC.
Format: cell-based
Experimental: A flask test was performed to compare the degree of retinol production of retinol-producing strains according to the presence and absence, and the type of antioxidants. Each retinol production platform strain was inoculated in a 250 ml corner-baffled flask containing 25 ml of Yarrowia lipolytica minimal media2 (YLMM2) at an initial OD of 4, and 4 types of antioxidants, 3,5-Di-tert-4-butylhydroxytoluene (BHT), propyl gallate (PG), vitamin C, and glutathione (GSH), were added to the medium at a concentration of 0.01% to 0.05%, respectively. Culturing was carried out under conditions of 30° C. and 200 rpm.
To evaluate the degree of growth according to culture time, the OD value at a wavelength of 600 nm was measured using a spectrophotometer, and the method of measuring retinol concentrations is as follows; After the culture was completed, 1 ml of the culture medium was centrifuged to remove the supernatant, then 0.5 ml of dimethyl sulfoxide (DMSO, Sigma) was added and the cells were disrupted by agitation at 55° C. for 10 minutes (agitation; 2,000 rpm). Next, 0.5 ml of acetone (Sigma) containing 4% BHT was added and agitated (2,000 rpm) for 15 min at 45° C., and retinoids extracted in this manner were quantitatively analyzed using HPLC equipment.
Considering that the sugar consumption rate may vary depending on the type of antioxidants which were added to the medium, BHT, PG, vitamin C, and GSH were each cultured for 48 hours. After 48 hour-incubation, retinal and retinol were extracted and quantified.

Row | SMILES | retinol concentration increase as compared to the control group without antioxidants
1 | Cc1cc(C(C)(C)C)c(O)c(C(C)(C)C)c1 [BHT, 3,5-di-tert-4-butylhydroxytoluene] | up to 1.89 times
2 | N[C@@H](CCC(=O)N[C@@H](CS)C(=O)NCC(=O)O)C(=O)O [GSH, glutathione] | ≤ 1.21 times
3 | CCCOC(=O)c1cc(O)c(O)c(O)c1 [PG, propyl gallate] | ≤ 1.82 times
4 | O=C1O[C@H]([C@@H](O)CO)C(O)=C1O [vitamin C, ascorbic acid] | ≤ 1.44 times
